According to patent publication US20100113510A1 (priority 2006, published 2010):
Read-outs that look alike come from different tables or passages of the source.

Biological target: T1, human muscarinic acetylcholine M3 receptor (M3-ACh) (Homo sapiens, UniProt P20309)
T1 construct: expressed in transfected cells; host or cells: CHO-K1 (Chinese Hamster Ovary) cell membranes
Assay: biochemical
Format: binding

[1] = pIC50 (M3 Binding IC50 classes)
[2] = read-out: pIC50 (M3 Binding IC50 classes) (converted)

T1 sequence (P20309 whole entry): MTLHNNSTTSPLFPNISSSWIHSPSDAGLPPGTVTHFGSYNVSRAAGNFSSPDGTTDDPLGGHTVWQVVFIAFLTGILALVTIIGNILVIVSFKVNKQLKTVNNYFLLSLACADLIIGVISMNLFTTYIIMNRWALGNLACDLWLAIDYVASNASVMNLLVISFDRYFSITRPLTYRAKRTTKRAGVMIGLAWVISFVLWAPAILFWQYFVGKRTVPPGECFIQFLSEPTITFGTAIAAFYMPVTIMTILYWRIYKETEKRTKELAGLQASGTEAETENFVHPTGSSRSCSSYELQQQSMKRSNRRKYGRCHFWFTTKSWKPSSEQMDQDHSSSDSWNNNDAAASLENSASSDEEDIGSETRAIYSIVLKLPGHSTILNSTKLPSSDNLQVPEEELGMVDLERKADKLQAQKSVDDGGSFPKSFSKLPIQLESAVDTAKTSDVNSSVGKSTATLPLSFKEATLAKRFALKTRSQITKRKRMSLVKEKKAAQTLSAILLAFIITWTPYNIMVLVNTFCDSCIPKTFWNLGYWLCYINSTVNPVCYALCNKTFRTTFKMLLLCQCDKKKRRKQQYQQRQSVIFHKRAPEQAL

SMILES	IC50 [1] [nM]	other results
CC1(C)CN(C(C)(C(=O)O[C@H]2C[N+]3(CCCOc4ccccc4)CCC2CC3)c2ccc(Cl)cc2)C1 (single isomer, unassigned) [Example 46]	> 10	–
CC1(C)CN(C(C)(C(=O)O[C@H]2C[N+]3(CCCOc4ccccc4)CCC2CC3)c2ccc(Cl)cc2)C1 (single isomer, unassigned) [Example 47]	< 2	–
CC1(C)CN(C(C)(C(=O)O[C@H]2C[N+]3(CCCOc4ccccc4)CCC2CC3)c2ccccc2)C1 (single isomer, unassigned) [Example 48]	2 to 10	–
CC(C(=O)O[C@H]1C[N+]2(CCCOc3ccccc3)CCC1CC2)(c1cccs1)N1CCSCC1 (single isomer, unassigned) [Example 49]	< 2	–
CC(C(=O)O[C@H]1C[N+]2(CCCc3ccccc3)CCC1CC2)(c1cccs1)N1CCSCC1 (single isomer, unassigned) [Example 50]	< 2	–
CC(C(=O)O[C@H]1C[N+]2(CCc3cccc(F)c3)CCC1CC2)(c1cccs1)N1CCSCC1 (single isomer, unassigned) [Example 51]	< 2	–
CC(C(=O)O[C@H]1C[N+]2(CCc3cccc(Cl)c3)CCC1CC2)(c1cccs1)N1CCSCC1 (single isomer, unassigned) [Example 52]	< 2	–
CC(C(=O)O[C@H]1C[N+]2(CC(=O)Nc3cccc(F)c3)CCC1CC2)(c1cccs1)N1CCSCC1 (single isomer, unassigned) [Example 53]	< 2	–
CC(C(=O)O[C@H]1C[N+]2(CC(=O)Nc3cnccn3)CCC1CC2)(c1cccs1)N1CCSCC1 (single isomer, unassigned) [Example 54]	< 2	–
CC(C(=O)O[C@H]1C[N+]2(Cc3cc(-c4ccccc4)no3)CCC1CC2)(c1cccs1)N1CCSCC1 (single isomer, unassigned) [Example 55]	2 to 10	–
CC(C(=O)O[C@H]1C[N+]2(Cc3nc(-c4ccccc4)no3)CCC1CC2)(c1cccs1)N1CCSCC1 (single isomer, unassigned) [Example 56]	< 2	–
Cc1ccc(OCC[N+]23CCC(CC2)[C@@H](OC(=O)C(C)(c2cccs2)N2CCCCC2)C3)c(C)n1 (single isomer, unassigned) [Example 66]	2 to 10	–
CC(C(=O)O[C@H]1C[N+]2(CC(=O)c3cccc(F)c3)CCC1CC2)(c1cccs1)N1CCCCC1 (single isomer, unassigned) [Example 67]	< 2	–
CC(C(=O)O[C@H]1C[N+]2(CC(=O)Nc3ccc(Cl)nn3)CCC1CC2)(c1cccs1)N1CCCCC1 (single isomer, unassigned) [Example 72]	< 2	–
CC(C(=O)O[C@H]1C[N+]2(Cc3nc4ccccc4s3)CCC1CC2)(c1cccs1)N1CCCCC1 (single isomer, unassigned) [Example 75]	< 2	–
Cc1cnc(NC(=O)C[N+]23CCC(CC2)[C@@H](OC(=O)C(C)(c2cccs2)N2CCCCC2)C3)cn1 (single isomer, unassigned) [Example 76]	< 2	–
CC(C(=O)O[C@H]1C[N+]2(CC(=O)Nc3noc4ccccc34)CCC1CC2)(c1cccs1)N1CCCCC1 (single isomer, unassigned) [Example 77]	< 2	–
CC(C(=O)O[C@H]1C[N+]2(CCc3cccc(Cl)c3)CCC1CC2)(c1ccccc1)N1CCOCC1 (single isomer, unassigned) [Example 79]	< 2	–
CC(C(=O)O[C@H]1C[N+]2(CCc3cccc(Cl)c3)CCC1CC2)(c1ccccc1)N1CCOCC1 (single isomer, unassigned) [Example 80]	2 to 10	–
Cc1cc(OCCC[N+]23CCC(CC2)[C@@H](OC(=O)C(C)(c2cccs2)N2CCCCC2)C3)cc(C)n1 (single isomer, unassigned) [Example 81]	2 to 10	–
CC(C(=O)O[C@H]1C[N+]2(CCc3cccc(Cl)c3)CCC1CC2)(c1ccccc1)N1CCCCCC1 (single isomer, unassigned) [Example 86]	< 2	–
CC(C(=O)O[C@H]1C[N+]2(CCc3cccc(Cl)c3)CCC1CC2)(c1ccccc1)N1CCCCCC1 (single isomer, unassigned) [Example 87]	–	IC50 [2]: < 2 nM
CC(C(=O)O[C@H]1C[N+]2(CC(=O)Nc3cccc(F)c3)CCC1CC2)(c1ccccc1)N1CCCCCC1 (single isomer, unassigned) [Example 88]	< 2	–
CC(C(=O)O[C@H]1C[N+]2(CC(=O)Nc3ccccc3)CCC1CC2)(c1ccccc1)N1CCCCCC1 (single isomer, unassigned) [Example 89]	< 2	–
CC(C(=O)O[C@H]1C[N+]2(CC(=O)Nc3ccon3)CCC1CC2)(c1ccccc1)N1CCCCCC1 (single isomer, unassigned) [Example 90]	< 2	IC50 (pIC50): 0.631 nM

SMILES	IC50 [1] [nM]	other results
Cc1cnc(NC(=O)C[N+]23CCC(CC2)[C@@H](OC(=O)C(C)(c2ccccc2)N2CCCCCC2)C3)cn1 (single isomer, unassigned) [Example 91]	< 2	–
CC(C(=O)O[C@H]1C[N+]2(CCc3cccc(F)c3)CCC1CC2)(c1ccccc1)N1CCCCCC1 (single isomer, unassigned) [Example 92]	< 2	–
CC(C(=O)O[C@H]1C[N+]2(CCc3ccccc3)CCC1CC2)(c1ccccc1)N1CCCCCC1 (single isomer, unassigned) [Example 93]	< 2	–
CC(C(=O)O[C@H]1C[N+]2(CCCc3ccccc3)CCC1CC2)(c1ccccc1)N1CCCCCC1 (single isomer, unassigned) [Example 94]	< 2	–
CC(C(=O)O[C@H]1C[N+]2(CCCc3ccccc3)CCC1CC2)(c1ccccc1)N1CCCCCC1 (single isomer, unassigned) [Example 95]	–	IC50 [2]: < 2 nM
CC(C(=O)O[C@H]1C[N+]2(CCCc3cccnc3)CCC1CC2)(c1ccccc1)N1CCCCCC1 (single isomer, unassigned) [Example 96]	< 2	–
CC(C(=O)O[C@H]1C[N+]2(CCCOc3ccccc3)CCC1CC2)(c1ccccc1)N1CCCCCC1 (single isomer, unassigned) [Example 97]	< 2	–
CC(C(=O)O[C@H]1C[N+]2(CCc3cccc(Cl)c3)CCC1CC2)(c1ccccc1)N1CCSCC1 (single isomer, unassigned) [Example 98]	< 2	–
CC(C(=O)O[C@H]1C[N+]2(CCc3cccc(Cl)c3)CCC1CC2)(c1ccccc1)N1CCSCC1 (single isomer, unassigned) [Example 99]	2 to 10	–
CC(C(=O)O[C@H]1C[N+]2(CC(=O)Nc3cccc(F)c3)CCC1CC2)(c1ccccc1)N1CCSCC1 (single isomer, unassigned) [Example 100]	< 2	–
CC(C(=O)O[C@H]1C[N+]2(CC(=O)Nc3cccnn3)CCC1CC2)(c1ccccc1)N1CCSCC1 (single isomer, unassigned) [Example 101]	< 2	–
CC(C(=O)O[C@H]1C[N+]2(CC(=O)Nc3ccon3)CCC1CC2)(c1ccccc1)N1CCSCC1 (single isomer, unassigned) [Example 102]	< 2	–
CC(C(=O)O[C@H]1C[N+]2(CCc3ccccc3)CCC1CC2)(c1ccccc1)N1CCSCC1 (single isomer, unassigned) [Example 103]	< 2	–
CC(C(=O)O[C@H]1C[N+]2(CCCc3ccccc3)CCC1CC2)(c1ccccc1)N1CCSCC1 (single isomer, unassigned) [Example 104]	< 2	–
CC(C(=O)O[C@H]1C[N+]2(CCCc3ccccc3)CCC1CC2)(c1ccccc1)N1CCSCC1 (single isomer, unassigned) [Example 105]	2 to 10	–
CC(C(=O)O[C@H]1C[N+]2(CCCc3cccnc3)CCC1CC2)(c1ccccc1)N1CCSCC1 (single isomer, unassigned) [Example 106]	2 to 10	–
CC(C(=O)O[C@H]1C[N+]2(CCCOc3ccccc3)CCC1CC2)(c1ccccc1)N1CCSCC1 (single isomer, unassigned) [Example 107]	< 2	–
CC(C(=O)O[C@H]1C[N+]2(CCOCc3ccc(Cl)cc3)CCC1CC2)(c1ccccc1)N1CCSCC1 (single isomer, unassigned) [Example 108]	2 to 10	–
CN(C(=O)C[N+]12CCC(CC1)[C@@H](OC(=O)C(C)(c1cccs1)N1CCCCC1)C2)c1cccc(F)c1 (single isomer, unassigned) [Example 109]	2 to 10	–
CC(C(=O)O[C@H]1C[N+]2(CC(=O)Nc3ccon3)CCC1CC2)(c1ccccc1)N1CCCCCC1 (single isomer, unassigned) [Example 111]	2 to 10	–
C[C@@](C(=O)O[C@H]1C[N+]2(CC(=O)c3sccc3Cl)CCC1CC2)(c1ccccc1)N1CCCCC1 [Example 4, (3R)-1-[2-(3-Chloro-2-thienyl)-2-oxoethyl]-3-{[(2S)-2-phenyl-2-piperidin-1-ylpropanoyl]oxy}-1-azoniabicyclo[2.2.2]octane bromide]	2 to 10	–
C[C@@](C(=O)O[C@H]1C[N+]2(CC(=O)c3ccc(F)cc3F)CCC1CC2)(c1ccccc1)N1CCCCC1 [Example 5, (3R)-1-[2-(2,4-Difluorophenyl)-2-oxoethyl]-3-{[(2S)-2-phenyl-2-piperidin-1-ylpropanoyl]oxy}-1-azoniabicyclo[2.2.2]octane chloride]	2 to 10	–
C[C@@](C(=O)O[C@H]1C[N+]2(CC(=O)c3cccc(Cl)c3)CCC1CC2)(c1ccccc1)N1CCCCC1 [Example 6, (3R)-1-[2-(3-Chlorophenyl)-2-oxoethyl]-3-{[(2S)-2-phenyl-2-piperidin-1-ylpropanoyl]oxy}-1-azoniabicyclo[2.2.2]octane bromide]	< 2	–
C[C@@](C(=O)O[C@H]1C[N+]2(CC(=O)c3cccc(F)c3)CCC1CC2)(c1ccccc1)N1CCCCC1 [Example 7, (3R)-1-[2-(3-Fluorophenyl)-2-oxoethyl]-3-{[(2S)-2-phenyl-2-piperidin-1-ylpropanoyl]oxy}-1-azoniabicyclo[2.2.2]octane bromide]	< 2	–
COc1cccc(C(=O)C[N+]23CCC(CC2)[C@@H](OC(=O)[C@](C)(c2ccccc2)N2CCCCC2)C3)c1 [Example 8, (3R)-1-[2-(3-Methoxyphenyl)-2-oxoethyl]-3-{[(2S)-2-phenyl-2-piperidin-1-ylpropanoyl]oxy}-1-azoniabicyclo[2.2.2]octane bromide]	< 2	–
